Data from patent US8192962B2, “Processes for detecting toxic substances” (Daikin Industries, Ltd., priority 2001, dated 2012).

System: Metabolism protein genes
Test: DNA chip mRNA expression in yeast, metabolism protein genes (Table 7)
Type: cell-based, Saccharomyces cerevisiae S288C
Summary of the method: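 First, S288C yeast grown in YPD at 25° C. are dosed in log phase with one toxicant (growth-inhibiting, not lethal) for 2 h. Next, total RNA is extracted and poly(A) mRNA isolated and reverse-transcribed with Cy3/Cy5-dUTP. Finally, whole-genome chip fluorescence is read relative to unexposed cells.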

Na2As [(1)]
1.4: The level of expressed mRNA in the presence of chemical substance/The level of expressed mRNA in the absence of chemical substance (yeast gene YDR019C) | The level of expressed mRNA in the presence of chemical substance/The level of expressed mRNA in the absence of chemical substance (yeast gene YHR111W)
1.0: The level of expressed mRNA in the presence of chemical substance/The level of expressed mRNA in the absence of chemical substance (yeast gene YAL038W) | level of expressed mRNA in the presence/in the absence of chemical substance (yeast gene YBR020W) | level of expressed mRNA in the presence/in the absence of chemical substance (yeast gene YDR400W) | level of expressed mRNA in the presence/in the absence of chemical substance (yeast gene YDR408C) | level of expressed mRNA in the presence/in the absence of chemical substance (yeast gene YGL012W) | The level of expressed mRNA in the presence of chemical substance/The level of expressed mRNA in the absence of chemical substance (yeast gene YGR037C) | level of expressed mRNA in the presence/in the absence of chemical substance (yeast gene YIL006W) | The level of expressed mRNA in the presence of chemical substance/The level of expressed mRNA in the absence of chemical substance (yeast gene YIL155C) | The level of expressed mRNA in the presence of chemical substance/The level of expressed mRNA in the absence of chemical substance (yeast gene YIR036C) | level of expressed mRNA in the presence/in the absence of chemical substance (yeast gene YJL121C)
2.7: The level of expressed mRNA in the presence of chemical substance/The level of expressed mRNA in the absence of chemical substance (yeast gene YJR137C)
0.5: The level of expressed mRNA in the presence of chemical substance/The level of expressed mRNA in the absence of chemical substance (yeast gene YBR023C) | The level of expressed mRNA in the presence of chemical substance/The level of expressed mRNA in the absence of chemical substance (yeast gene YCR048W) | The level of expressed mRNA in the presence of chemical substance/The level of expressed mRNA in the absence of chemical substance (yeast gene YFL031W) | The level of expressed mRNA in the presence of chemical substance/The level of expressed mRNA in the absence of chemical substance (yeast gene YGL022W) | level of expressed mRNA in the presence/in the absence of chemical substance (yeast gene YGR204W)
19.0: The level of expressed mRNA in the presence of chemical substance/The level of expressed mRNA in the absence of chemical substance (yeast gene YFL056C)
1.2: level of expressed mRNA in the presence/in the absence of chemical substance (yeast gene YDR123C) | The level of expressed mRNA in the presence of chemical substance/The level of expressed mRNA in the absence of chemical substance (yeast gene YDR502C) | The level of expressed mRNA in the presence of chemical substance/The level of expressed mRNA in the absence of chemical substance (yeast gene YDR516C) | level of expressed mRNA in the presence/in the absence of chemical substance (yeast gene YFL011W) | The level of expressed mRNA in the presence of chemical substance/The level of expressed mRNA in the absence of chemical substance (yeast gene YGL209W) | The level of expressed mRNA in the presence of chemical substance/The level of expressed mRNA in the absence of chemical substance (yeast gene YGR256W) | The level of expressed mRNA in the presence of chemical substance/The level of expressed mRNA in the absence of chemical substance (yeast gene YIR034C) | The level of expressed mRNA in the presence of chemical substance/The level of expressed mRNA in the absence of chemical substance (yeast gene YJL068C) | The level of expressed mRNA in the presence of chemical substance/The level of expressed mRNA in the absence of chemical substance (yeast gene YJL099W) | The level of expressed mRNA in the presence of chemical substance/The level of expressed mRNA in the absence of chemical substance (yeast gene YJL219W)
1.5: level of expressed mRNA in the presence/in the absence of chemical substance (yeast gene YGR096W) | The level of expressed mRNA in the presence of chemical substance/The level of expressed mRNA in the absence of chemical substance (yeast gene YIL107C)
1.1: The level of expressed mRNA in the presence of chemical substance/The level of expressed mRNA in the absence of chemical substance (yeast gene YAL012W) | level of expressed mRNA in the presence/in the absence of chemical substance (yeast gene YDR483W) | The level of expressed mRNA in the presence of chemical substance/The level of expressed mRNA in the absence of chemical substance (yeast gene YER096W) | The level of expressed mRNA in the presence of chemical substance/The level of expressed mRNA in the absence of chemical substance (yeast gene YHR174W) | level of expressed mRNA in the presence/in the absence of chemical substance (yeast gene YJR077C)
1.3: level of expressed mRNA in the presence/in the absence of chemical substance (yeast gene YBR011C) | The level of expressed mRNA in the presence of chemical substance/The level of expressed mRNA in the absence of chemical substance (yeast gene YER069W) | The level of expressed mRNA in the presence of chemical substance/The level of expressed mRNA in the absence of chemical substance (yeast gene YFR047C) | The level of expressed mRNA in the presence of chemical substance/The level of expressed mRNA in the absence of chemical substance (yeast gene YGL248W) | The level of expressed mRNA in the presence of chemical substance/The level of expressed mRNA in the absence of chemical substance (yeast gene YGR282C) | level of expressed mRNA in the presence/in the absence of chemical substance (yeast gene YHR210C)
0.9: level of expressed mRNA in the presence/in the absence of chemical substance (yeast gene YBR003W) | level of expressed mRNA in the presence/in the absence of chemical substance (yeast gene YER120W) | level of expressed mRNA in the presence/in the absence of chemical substance (yeast gene YGL115W) | level of expressed mRNA in the presence/in the absence of chemical substance (yeast gene YGL205W) | The level of expressed mRNA in the presence of chemical substance/The level of expressed mRNA in the absence of chemical substance (yeast gene YGR194C) | level of expressed mRNA in the presence/in the absence of chemical substance (yeast gene YGR288W) | The level of expressed mRNA in the presence of chemical substance/The level of expressed mRNA in the absence of chemical substance (yeast gene YJL088W) | level of expressed mRNA in the presence/in the absence of chemical substance (yeast gene YJL167W)
3.4: The level of expressed mRNA in the presence of chemical substance/The level of expressed mRNA in the absence of chemical substance (yeast gene YFL014W)
3.0: The level of expressed mRNA in the presence of chemical substance/The level of expressed mRNA in the absence of chemical substance (yeast gene YBR256C)
1.8: The level of expressed mRNA in the presence of chemical substance/The level of expressed mRNA in the absence of chemical substance (yeast gene YBR183W) | The level of expressed mRNA in the presence of chemical substance/The level of expressed mRNA in the absence of chemical substance (yeast gene YHR176W)
2.0: level of expressed mRNA in the presence/in the absence of chemical substance (yeast gene YDR178W)
0.8: level of expressed mRNA in the presence/in the absence of chemical substance (yeast gene YCR034W) | level of expressed mRNA in the presence/in the absence of chemical substance (yeast gene YDR284C) | level of expressed mRNA in the presence/in the absence of chemical substance (yeast gene YDR345C) | The level of expressed mRNA in the presence of chemical substance/The level of expressed mRNA in the absence of chemical substance (yeast gene YDR380W) | The level of expressed mRNA in the presence of chemical substance/The level of expressed mRNA in the absence of chemical substance (yeast gene YER026C) | The level of expressed mRNA in the presence of chemical substance/The level of expressed mRNA in the absence of chemical substance (yeast gene YER178W) | level of expressed mRNA in the presence/in the absence of chemical substance (yeast gene YGR191W) | The level of expressed mRNA in the presence of chemical substance/The level of expressed mRNA in the absence of chemical substance (yeast gene YIL154C) | The level of expressed mRNA in the presence of chemical substance/The level of expressed mRNA in the absence of chemical substance (yeast gene YJL172W) | level of expressed mRNA in the presence/in the absence of chemical substance (yeast gene YJL216C)
2.5: The level of expressed mRNA in the presence of chemical substance/The level of expressed mRNA in the absence of chemical substance (yeast gene YGR055W)
0.6: The level of expressed mRNA in the presence of chemical substance/The level of expressed mRNA in the absence of chemical substance (yeast gene YBR222C) | The level of expressed mRNA in the presence of chemical substance/The level of expressed mRNA in the absence of chemical substance (yeast gene YCL009C) | The level of expressed mRNA in the presence of chemical substance/The level of expressed mRNA in the absence of chemical substance (yeast gene YCL064C) | The level of expressed mRNA in the presence of chemical substance/The level of expressed mRNA in the absence of chemical substance (yeast gene YGL126W) | level of expressed mRNA in the presence/in the absence of chemical substance (yeast gene YHR025W) | level of expressed mRNA in the presence/in the absence of chemical substance (yeast gene YJR143C)
1.7: level of expressed mRNA in the presence/in the absence of chemical substance (yeast gene YDR073W) | The level of expressed mRNA in the presence of chemical substance/The level of expressed mRNA in the absence of chemical substance (yeast gene YIL045W)
20.9: The level of expressed mRNA in the presence of chemical substance/The level of expressed mRNA in the absence of chemical substance (yeast gene YFL057C)
0.7: The level of expressed mRNA in the presence of chemical substance/The level of expressed mRNA in the absence of chemical substance (yeast gene YBR029C) | The level of expressed mRNA in the presence of chemical substance/The level of expressed mRNA in the absence of chemical substance (yeast gene YDR497C) | level of expressed mRNA in the presence/in the absence of chemical substance (yeast gene YEL063C) | level of expressed mRNA in the presence/in the absence of chemical substance (yeast gene YER015W) | level of expressed mRNA in the presence/in the absence of chemical substance (yeast gene YHR123W) | The level of expressed mRNA in the presence of chemical substance/The level of expressed mRNA in the absence of chemical substance (yeast gene YHR137W) | The level of expressed mRNA in the presence of chemical substance/The level of expressed mRNA in the absence of chemical substance (yeast gene YJR148W)
1.6: level of expressed mRNA in the presence/in the absence of chemical substance (yeast gene YCR010C) | The level of expressed mRNA in the presence of chemical substance/The level of expressed mRNA in the absence of chemical substance (yeast gene YCR098C) | level of expressed mRNA in the presence/in the absence of chemical substance (yeast gene YDR050C) | level of expressed mRNA in the presence/in the absence of chemical substance (yeast gene YDR277C) | The level of expressed mRNA in the presence of chemical substance/The level of expressed mRNA in the absence of chemical substance (yeast gene YER053C) | level of expressed mRNA in the presence/in the absence of chemical substance (yeast gene YER081W) | The level of expressed mRNA in the presence of chemical substance/The level of expressed mRNA in the absence of chemical substance (yeast gene YFL030W) | The level of expressed mRNA in the presence of chemical substance/The level of expressed mRNA in the absence of chemical substance (yeast gene YJL031C)
